These results are taken from patent EP4813463A2, “TYK2 INHIBITORS AND COMPOSITIONS AND METHODS THEREOF” (Lynk Pharmaceuticals Co. Ltd., priority 2023, dated 2024).

The test system of series [1] is pSTAT1. In words: Phosphorylation inhibition of STAT in human whole blood (IFN-alpha stimulated, flow cytometry). The format is cell-based. The settings on record: T-cell, 20 min, IFN-alpha stimulation 20 mins, CD3 T cells, read-out: pSTAT1 inhibition in hWB (IC50). The protocol: The inhibitory potential of test articles in human whole blood assay was evaluated by the method of flow cytometry.
IFN-alpha will activate JAK1 and TYK2 kinase in T cells by binding to IFN receptors, and then lead to phosphorylation of STAT1 and STAT2. The phosphorylated STAT1 enter nuclear and promote transcription and expression of IFN-gamma. To evaluate the efficacy of TYK2i in T cells, freshly collected human whole blood will be stimulated with certain unit of human IFN-alpha (Universal Type I IFN(1MU), R&D, 11200-2) for 20 mins in incubator. After stimulation, fix cells with Phosflow™ Fix Buffer I (BD, 557870), and then collect fixed cells by centrifugation (500 g, 8min). Wash cells once with pre-cooled PBS, and then permeabilize cells with cold Perm Buffer III buffer (BD, 558050) for 45 mins on ice. Collect cells by centrifugation (600 g, 8min) and washed twice with cold PBS. Stain cells with anti-human CD3(FITC Mouse Anti-Human CD3, BD, 555332) and anti-pSTAT1_Y701(Alexa Fluor 647 Mouse Anti-Stat1 (pY701), BD, 612597) antibodies. Detect pSTAT1 by flow cytometry (CytoFlex S) and analyze data with FlowJo and GraphPad Prism 8 software. IC50 values of test articles were determined using 4- parameter logistic equation.

The nature of series [2]: Kinetic solubility. The format is physicochemical. Conditions: phosphate buffer, pH 7.4, aqueous buffer, kinetic from dmso stock, 100 mM pH 7.4 phosphate buffer, 1% DMSO, room temperature, read-out: Kinetics Solubility_PBS7.4. The protocol: Aliquots of 8 µL of reference and test compound stock solutions (10 mM/5 mM) are added into 792 µL of 100 mM pH 7.4 phosphate buffer. The final DMSO concentration is 1%. Sample tubes are shaken for 2 hours at 1000 rpm at room temperature. Samples are centrifuged at 12000 rpm for 10 min to precipitate un-dissolved particles. And transfer the supernatants to a new tube or plate. Add 5 µL of samples (no diluted, 10 times diluted, and 100 times diluted) and standard curve samples to 95 µL of ACN containing IS for LC-MS/MS analysis. Kinetic Solubilities Values of Exemplary Compounds

Series [3] has as its target T1, TYK2-JH2 domain (Homo sapiens, UniProt P29597).
T1 construct: JAK1-JH2 domain or TYK2-JH2 domain enzyme in assay buffer
In words: Binding activity test for JH2 domain of TYK2 (Tb-antibody/tracer FRET). Conditions: for IC50: JH2 domain enzyme, 60 min at 25°C, then 4°C overnight, read-out: TYK2 JH2 Binding IC50; for JAK1/TYK2 selectivity: ratio of JAK1 JH2 to TYK2 JH2 binding IC50. The method in brief: (§1)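 Competitive TR-FRET binding: compounds dispensed as an 11-point 3-fold dilution series, then Tb-labelled antibody and tracer added to the JH2 protein system. Incubated at 25°C, then overnight at 4°C; FRET signal read on Envision and IC50 (nM) derived.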

Series [4] has as its target T2, JAK1-JH2 domain (Homo sapiens, UniProt P23458).
T2 construct: JAK1-JH2 domain or TYK2-JH2 domain enzyme in assay buffer
The series is described as follows: Binding activity test for JH2 domain of JAK1 (Tb-antibody/tracer FRET). Conditions: JH2 domain enzyme; 60 min at 25°C, then 4°C overnight; read-out: JAK1 JH2 Binding IC50. The method in brief: as §1

For series [5], the system named is Ba/F3-FL-TYK2-P760L cells. In words: Anti-proliferative assay in engineered Ba/F3 cells (Cell-Titer Glo, 72 h). The format is cell-based. Conditions: 72 h compound treatment, concentration that causes 50% growth inhibition, read-out: Baf3-FL-T2P760L. The method in brief:
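Ba/F3 cells carrying Tel-dimerization/JAK kinase fusion, IL-3-independent, in RPMI-1640 + 10% FBS; 9-point 3-fold dilutions from 20 µM (0.1% DMSO) added after 24 h, 72 h at 37 °C. Viability by Cell-Titer Glo ATP luminescence; % inhibition versus DMSO cells, blank-corrected, giving IC50.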

Series [6] can be described thus: Microsomal metabolic stability assay. It counts as in vitro ADME. The settings on record: human, liver microsomes, pH 7.4, 0.5 mg/mL microsomal protein, 1 µM test article, 2 mM NADPH; for microsomal CLint at 1 µM: read-out: Human LM Clint; for half-life at 1 µM: read-out: Human LM T1/2. Here is the method:
Microsomes were pre-incubated with test compound or control compounds for 5 min at 37°C in 100 mM potassium phosphate buffer, pH 7.4, 1.0 mM EDTA. The reaction was initiated by addition of 15 µL of the NADPH regenerating system to 30 µL of each incubation mixture per time point. The final incubation condition was composed of 0.5 mg/mL microsomal protein, 1 µM test article/positive control, 2 mM NADPH. The 0-minute samples were prepared by addition of a 30 µL aliquot of each incubation mixture to 135 µL quench reagent to precipitate proteins. And then a 15 µL aliquot of the NADPH regenerating system was added. At 5, 15, 30 and 45 minutes, the reaction will be stopped by the addition of cold acetonitrile solution containing internal standard. The samples taken at all time points were centrifuged at 5000×g for 15 minutes. 50 µL of supernatant are taken into 96-well assay plates pre-added with 50 µL ultrapure water, and then analyzed by LC/MS/MS.
Concentrations of test articles, control compounds in the samples were determined by using LC/MS/MS method. Plotting of the chromatograms and peak area integrations are carried out by Analyst (AB Sciex).
In the determination of the in vitro elimination constant (ke) of the control compounds, the analyte/internal standard peak area ratios will be converted to percentage remaining (%Remaining) with the following equation: %Remaining = (Peak area ratio of analyte to IS at each time point)/(Peak area ratio of analyte to IS at t = 0) × 100% [formula]
The CLint of microsomes was calculated using the formula: CLint (mic)=0.693/T1/2 /mg microsome protein per mL. The slope was measured by the natural logarithm of the percentage of the residual compound and time, T1/2 was calculated according to the following formula. T = (0.693)/(−slope) [formula]
In general terms: Liver microsomes are a subcellular fraction often used to study metabolism.

SMILES strings stand for the structures. In brackets after ≈: the same amount, converted by molar mass. Read-outs that look alike come from different tables or passages of the source.

T1 sequence (P29597 589-875 limits assumed): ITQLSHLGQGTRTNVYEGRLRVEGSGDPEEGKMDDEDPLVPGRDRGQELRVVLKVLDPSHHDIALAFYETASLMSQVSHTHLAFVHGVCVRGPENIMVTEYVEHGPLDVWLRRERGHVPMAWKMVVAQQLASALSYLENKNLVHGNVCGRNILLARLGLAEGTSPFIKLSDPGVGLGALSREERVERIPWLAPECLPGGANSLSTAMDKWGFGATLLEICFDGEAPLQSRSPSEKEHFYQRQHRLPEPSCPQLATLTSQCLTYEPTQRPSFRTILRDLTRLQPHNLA
T2 sequence (P23458 583-855 limits assumed): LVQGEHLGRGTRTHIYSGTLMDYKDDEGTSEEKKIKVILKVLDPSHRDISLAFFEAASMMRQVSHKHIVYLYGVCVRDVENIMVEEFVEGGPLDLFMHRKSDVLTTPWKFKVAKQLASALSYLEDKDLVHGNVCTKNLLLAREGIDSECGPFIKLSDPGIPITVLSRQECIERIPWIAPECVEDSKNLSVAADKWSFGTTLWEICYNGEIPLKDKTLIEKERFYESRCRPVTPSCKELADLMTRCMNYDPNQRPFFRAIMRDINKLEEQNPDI

Turning to `[2H]C([2H])([2H])NC(=O)c1cnc(NC(=O)C2CC2)cc1Nc1cnn2ccc(C(C)C(F)(F)F)c(OC)c12` (single isomer, unassigned) [Example 9B, (S*)-6-(cyclopropanecarboxamido)-4-((4-methoxy-5-(1,1,1-trifluoropropan-2-yl)pyrazolo[1,5-a]pyridin-3-yl)amino)-N-(methyl-d3)nicotinamide], the IC50 stood at 290 nM in series [1], 0.08 nM in series [3], 5.04 nM in series [4] and 54.2 nM in series [5]. The solubility kinetic at 2 h in series [2] amounted to 45.4 µM (≈ 21.7 µg/mL). For the same compound, the JAK1/TYK2 selectivity in series [3] was 63.0.

In the case of `[2H]C([2H])([2H])NC(=O)c1cnc(NC(=O)C2CC23CC3)cc1Nc1cnn2ccc([C@H](O)C(F)(F)F)c(OC)c12` (single isomer, unassigned) [Example 32A, 4-((4-Methoxy-5-((S)-2,2,2-trifluoro-1-hydroxyethyl)pyrazolo[1,5-a]pyridin-3-yl)amino)-N-(methyl-d3)-6-((S*)-spiro[2.2]pentane-1-carboxamido)nicotinamide], the IC50 stood at 99.4 nM in series [1], 0.099 nM in series [3], 18.6 nM in series [4] and 33 nM in series [5]. In addition, the solubility kinetic at 2 h in series [2] came to 25.5 µM (≈ 12.9 µg/mL). Also, the JAK1/TYK2 selectivity in series [3] was determined as 187.6.

As to `[2H]C([2H])([2H])NC(=O)c1cnc(NC(=O)C2CC2)cc1Nc1cn(C)c2ccc(CC)c(OC)c12` [Example 2, 6-(Cyclopropanecarboxamido)-4-((5-ethyl-4-methoxy-1-methyl-1H-indol-3-yl)amino)-N-(methyl-d3)nicotinamide], the IC50 in series [1] came out at 141 nM; in series [3] it was 0.333 nM; in series [4], 5.24 nM; in series [5] (Mus musculus, BaF3, 72 h) it was 17 nM. The solubility kinetic at 2 h in series [2] worked out at 15.3 µM (≈ 6.5 µg/mL). In series [3], the JAK1/TYK2 selectivity is on record as 15.7.

`[2H]C([2H])([2H])NC(=O)c1cnc(NC(=O)[C@@H]2C[C@@H]2F)cc1Nc1cnn2ccc(C#N)c(OC)c12` [Example 13, 4-((5-Cyano-4-methoxypyrazolo[1,5-a]pyridin-3-yl)amino)-6-((1S,2S)-2-fluorocyclopropane-1-carboxamido)-N-(methyl-d3)nicotinamide]: the solubility kinetic at 2 h in series [2] amounted to 11.2 µM (≈ 4.77 µg/mL). In series [3], the IC50 stood at 0.172 nM and the JAK1/TYK2 selectivity turned out to be 122.0. Further, in series [6], the microsomal CLint at 1 µM came out at 22 µL/min/mg and the half-life at 1 µM worked out at 1.05 h. Besides, in series [4], the IC50 was 21 nM. In addition, the IC50 in series [5] (Mus musculus, BaF3, 72 h) is 131 nM.

Consider `[2H]C([2H])([2H])NC(=O)c1cnc(NC(=O)C2(F)CC2)cc1Nc1cnn2ccc([C@H](O)C(F)(F)F)c(OC)c12` [Example 19, (S)-6-(1-fluorocyclopropane-1-carboxamido)-4-((4-methoxy-5-(2,2,2-trifluoro-1-hydroxyethyl)pyrazolo[1,5-a]pyridin-3-yl)amino)-N-(methyl-d3)nicotinamide], for which the solubility kinetic at 2 h in series [2] stood at 22.7 µM (≈ 11.3 µg/mL). The IC50 in series [3] was 0.273 nM; in series [4], 276 nM; in series [5] (Mus musculus, BaF3, 72 h), 137 nM. In addition, the JAK1/TYK2 selectivity in series [3] worked out at 1011.9.

Consider `[2H]C([2H])([2H])NC(=O)c1cnc(NC(=O)C2CC2)cc1Nc1cnn2ccc(CC(C)(F)F)c(OC)c12` [Example 20, 6-(Cyclopropanecarboxamido)-4-((5-(2,2-difluoropropyl)-4-methoxypyrazolo[1,5-a]pyridin-3-yl)amino)-N-(methyl-d3)nicotinamide], for which the solubility kinetic at 2 h in series [2] turned out to be 15 µM (≈ 6.92 µg/mL). Besides, the IC50 stood at 0.058 nM in series [3]; 13.6 nM in series [4]; 23.1 nM in series [5] (Mus musculus, BaF3, 72 h). The JAK1/TYK2 selectivity in series [3] is recorded as 235.2.

In the case of `[2H]C([2H])([2H])NC(=O)c1cnc(NC(=O)C2CC2)cc1Nc1cnn2ccc(COC([2H])([2H])[2H])c(OC)c12` [Example 29, 6-(Cyclopropanecarboxamido)-4-((4-methoxy-5-((methoxy-d3)methyl)pyrazolo[1,5-a]pyridin-3-yl)amino)-N-(methyl-d3)nicotinamide], in series [2], the solubility kinetic at 2 h worked out at 67.2 µM (≈ 28.9 µg/mL). Moreover, in series [3], the IC50 is 0.219 nM and the JAK1/TYK2 selectivity is listed as 76.4. For the same compound, in series [6], the microsomal CLint at 1 µM came to 27.9 µL/min/mg and the half-life at 1 µM was found to be 0.827 h. The IC50 in series [4] worked out at 16.7 nM. In series [5] (Mus musculus, BaF3, 72 h), the IC50 was determined as 80.9 nM.

Turning to `[2H]C([2H])([2H])NC(=O)c1cnc(NC(=O)C2CC23CC3)cc1Nc1cnn2ccc([C@H](O)C(F)(F)F)c(OC)c12` (stereo partly drawn) [Example 32, 4-((4-Methoxy-5-((S)-2,2,2-trifluoro-1-hydroxyethyl)pyrazolo[1,5-a]pyridin-3-yl)amino)-N-(methyl-d3)-6-(spiro[2.2]pentane-1-carboxamido)nicotinamide], the solubility kinetic at 2 h in series [2] was found to be 62.2 µM (≈ 31.6 µg/mL). Moreover, the IC50 in series [3] was determined as 0.171 nM; in series [4] it was 23.5 nM; in series [5] (Mus musculus, BaF3, 72 h) it was 42.3 nM. The JAK1/TYK2 selectivity in series [3] is reported as 137.2.

For the compound `[2H]C([2H])([2H])NC(=O)c1cnc(NC(=O)[C@@H]2C[C@@H]2F)cc1Nc1cnn2cnc(C(C)C(F)(F)F)c(OC)c12` (stereo partly drawn) [Example 38, 6-((1S,2S)-2-fluorocyclopropane-1-carboxamido)-4-((4-methoxy-5-(1,1,1-trifluoropropan-2-yl)pyrazolo[1,5-c]pyrimidin-3-yl)amino)-N-(methyl-d3)nicotinamide], the solubility kinetic at 2 h in series [2] was 37.2 µM (≈ 18.5 µg/mL). Moreover, in series [3], the IC50 was found to be 0.761 nM and the JAK1/TYK2 selectivity was 188.7. For the same compound, in series [6], the microsomal CLint at 1 µM is 7.34 µL/min/mg and the half-life at 1 µM is 3.15 h. Moreover, the IC50 in series [4] was determined as 144 nM. Further, the IC50 in series [5] (Mus musculus, BaF3, 72 h) was 1340 nM.

As for `[2H]C([2H])([2H])NC(=O)c1cnc(NC(=O)C2CC2)cc1Nc1nn(C)c2ccc([C@@H](O)C(F)(F)F)c(OC)c12` [Example 49B, (R)-6-(cyclopropanecarboxamido)-4-((4-methoxy-1-methyl-5-(2,2,2-trifluoro-1-hydroxyethyl)-1H-indazol-3-yl)amino)-N-(methyl-d3)nicotinamide], the solubility kinetic at 2 h in series [2] was 37.5 µM (≈ 18.6 µg/mL). In addition, the IC50 was found to be 0.211 nM in series [3]; 6.07 nM in series [4]; 18 nM in series [5] (Mus musculus, BaF3, 72 h). Besides, the JAK1/TYK2 selectivity in series [3] is on record as 28.76.
